As usually defined, the TGI is the concentration giving total growth inhibition. High values mean lower sensitivity of the cells, low ones greater sensitivity of the cells.

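Assay format: 96-well plates, 48-hour exposure. TGI: concentration producing complete growth inhibition.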

Some test systems named below: PC-3 prostate; SF-539 CNS; HCT-15 colon; NCI-H226 lung; A549 NSCLC; SW-620 colon; LOX IMVI melanoma; KM12 colon; EKVX NSCLC; IGROV1 ovarian; SN12C renal; HOP-92 NSCLC; U251 CNS; HOP-62 NSCLC; RPMI-8226 leukemia; MDA-MB-435.
What all share (assay): DTP human tumour cell line panel, 48 h

`CCOC(=O)CSc1nnc(CSc2nc(-c3ccccc3)c(-c3ccccc3)[nH]2)n1-c1ccccc1`: the concentration for total growth inhibition (TGI) in the experiment on PC-3 prostate was 43.8 µM; with SF-539 CNS, 41.6 µM; with HCT-15 colon, more than 100 µM; with NCI-H226 lung, more than 73.6 µM; in the experiment on A549 NSCLC it was more than 100 µM; in the experiment on SW-620 colon it was more than 100 µM. Further, the TGI with LOX IMVI melanoma is more than 100 µM; in the experiment on KM12 colon, more than 100 µM; in the experiment on EKVX NSCLC it was more than 100 µM; in the experiment with IGROV1 ovarian, more than 100 µM; in the experiment on SN12C renal, 34.9 µM; in the experiment with HOP-92 NSCLC, more than 100 µM. In addition, the concentration for total growth inhibition (TGI) in the experiment on U251 CNS, in the experiment on HOP-62 NSCLC and in the experiment on RPMI-8226 leukemia was more than 100 µM each time.
For the compound `O=c1oc2ccccc2c(O)c1/C=N/C(=S)NCc1ccccc1`, the total growth inhibition concentration (TGI) in the experiment on PC-3 prostate, in the experiment on SF-539 CNS, with HCT-15 colon, in the experiment on NCI-H226 lung, with A549 NSCLC and in the experiment with SW-620 colon was more than 100 µM throughout. Moreover, the TGI in the experiment with LOX IMVI melanoma, with KM12 colon, with EKVX NSCLC, in the experiment with MDA-MB-435, in the experiment with IGROV1 ovarian and in the experiment on SN12C renal was more than 100 µM each time. Also, the TGI in the experiment with HOP-92 NSCLC, in the experiment with U251 CNS and with HOP-62 NSCLC was more than 100 µM in each case.
On to `CC1(C)OCC(C2OC(OC(=O)c3ccc([N+](=O)[O-])cc3)C3OC(C)(C)OC23)O1` (stereo not given), for which the TGI with PC-3 prostate, in the experiment on SF-539 CNS, with HCT-15 colon, with NCI-H226 lung, with A549 NSCLC and in the experiment on SW-620 colon was more than 100 µM in each case. Also, the concentration for total growth inhibition (TGI) in the experiment on LOX IMVI melanoma, with KM12 colon, in the experiment with EKVX NSCLC, with MDA-MB-435, with IGROV1 ovarian and with SN12C renal was more than 100 µM each time. For the same compound, the concentration for total growth inhibition (TGI) in the experiment with U251 CNS, in the experiment on HOP-62 NSCLC and with RPMI-8226 leukemia was more than 100 µM each time.
For `CCC12CCCNC1c1c(n(C)c3ccccc13)C(C(=O)OC)C2` (stereo not given), the total growth inhibition concentration (TGI) in the experiment on SF-539 CNS, with HCT-15 colon, in the experiment with NCI-H226 lung, in the experiment with A549 NSCLC, in the experiment on SW-620 colon and with LOX IMVI melanoma was more than 275 µM each time. Besides, the concentration for total growth inhibition (TGI) was 161 µM in the experiment with KM12 colon; more than 275 µM with EKVX NSCLC; more than 275 µM in the experiment on IGROV1 ovarian; more than 275 µM with SN12C renal; 113 µM in the experiment with HOP-92 NSCLC; more than 275 µM with U251 CNS. For the same compound, the TGI in the experiment on HOP-62 NSCLC was more than 275 µM; in the experiment on RPMI-8226 leukemia it was 199 µM.
Take `Cc1ccc2c(c1)C1(OC(=O)c3ccccc31)c1ccc(F)cc1O2` (stereo not given): the TGI in the experiment on NCI-H226 lung was 85.8 µM; in the experiment on A549 NSCLC, more than 100 µM; in the experiment on SW-620 colon, more than 100 µM; in the experiment with LOX IMVI melanoma, more than 100 µM; in the experiment on KM12 colon, more than 100 µM; with EKVX NSCLC, more than 100 µM. Also, the total growth inhibition concentration (TGI) with IGROV1 ovarian is more than 100 µM; in the experiment with SN12C renal, more than 100 µM; with HOP-92 NSCLC it was more than 100 µM; with HOP-62 NSCLC, more than 100 µM; in the experiment on RPMI-8226 leukemia, 74.1 µM.
Consider `CC(Oc1ccc(OCC2CCCCC2)cc1)C(=O)NCCO` (stereo not given), for which the TGI with SF-539 CNS, with HCT-15 colon, in the experiment with NCI-H226 lung, in the experiment with A549 NSCLC, in the experiment on LOX IMVI melanoma and in the experiment on KM12 colon was more than 100 µM each time. Further, the TGI with IGROV1 ovarian, in the experiment with SN12C renal and in the experiment on U251 CNS was more than 100 µM in each case.
`NNC1=N/C(=C\c2ccco2)C(=O)N1`: the concentration for total growth inhibition (TGI) in the experiment with PC-3 prostate, in the experiment with SF-539 CNS, in the experiment with HCT-15 colon, in the experiment with NCI-H226 lung, in the experiment with A549 NSCLC and in the experiment on SW-620 colon was more than 100 µM each time. Further, the TGI in the experiment on LOX IMVI melanoma, in the experiment with KM12 colon, in the experiment with EKVX NSCLC, in the experiment with MDA-MB-435, in the experiment on IGROV1 ovarian and in the experiment with SN12C renal was more than 100 µM in each case. For the same compound, the concentration for total growth inhibition (TGI) in the experiment with U251 CNS, with HOP-62 NSCLC and with RPMI-8226 leukemia was more than 100 µM each time.
Take `Cc1cc2oc(-c3ccccc3)c(C)c(=O)c2c2c1OC(C)(C)S2`: the total growth inhibition concentration (TGI) in the experiment with SF-539 CNS, with HCT-15 colon, in the experiment on NCI-H226 lung, in the experiment with A549 NSCLC, in the experiment with SW-620 colon and in the experiment on LOX IMVI melanoma was more than 100 µM throughout. Besides, the TGI in the experiment with KM12 colon, in the experiment on EKVX NSCLC, in the experiment on IGROV1 ovarian, in the experiment on SN12C renal, in the experiment on HOP-92 NSCLC and in the experiment with U251 CNS was more than 100 µM each time. In addition, the TGI in the experiment on HOP-62 NSCLC and with RPMI-8226 leukemia was more than 100 µM each time.
As to `COC1(OC)N=C(N)C2(C#N)C3(C(=O)N(C(C)C)N=C3C)C12C#N` (stereo not given), the TGI with PC-3 prostate, in the experiment with SF-539 CNS, in the experiment with HCT-15 colon, with NCI-H226 lung, in the experiment with A549 NSCLC and with SW-620 colon was more than 100 µM throughout. The TGI with KM12 colon, in the experiment with EKVX NSCLC, in the experiment on MDA-MB-435, with IGROV1 ovarian, in the experiment with SN12C renal and with HOP-92 NSCLC was more than 100 µM in each case. Further, the TGI with U251 CNS, in the experiment on HOP-62 NSCLC and with RPMI-8226 leukemia was more than 100 µM throughout.
Consider `COc1cc(CNC2=NCCC2)cc(OC)c1OC`, for which the concentration for total growth inhibition (TGI) with PC-3 prostate, with SF-539 CNS, in the experiment on HCT-15 colon, in the experiment on NCI-H226 lung, in the experiment on A549 NSCLC and with SW-620 colon was more than 100 µM in each case. In addition, the concentration for total growth inhibition (TGI) with EKVX NSCLC, with IGROV1 ovarian, in the experiment with SN12C renal, in the experiment on HOP-92 NSCLC, in the experiment with U251 CNS and with HOP-62 NSCLC was more than 100 µM each time.
